Entries after “also recorded” stand apart in the source; their conditions may differ. Where two headings read alike, the source gives them in different places.
Experiments:
[1] = Cytotoxicity against Vero cells; format: cell-based; conditions: African green monkey, Vero cells; Not toxic = no toxic effect observed up to 50 µM
Vero cells = experiment: Cytotoxicity against Vero cells; format: cell-based; conditions: for CC50 Vero Cells: Not toxic = no toxic effect observed up to 50 µM
[2] = system: intracellular amastigotes of the Tulahuen strain; experiment: Intracellular amastigote assay, Tulahuen β-galactosidase strain in Vero cells; format: cell-based, Trypanosoma cruzi; conditions: for EC50: Trypanosoma cruzi, TULAHUEN, read-out: Activity on Tul Amastigotes; for activity on intracellular amastigotes: Tulahuen strain, infected Vero cells
Protocol: To evaluate the trypanocidal effect of the selected compounds on intracellular amastigotes, the drug screening method reported by Buckner et al. was adapted. Vero cells were seeded at 1 × 10^4 per well on a 96-well culture plate in 100 μL MEM-5% FBS. Tulahuen trypomastigotes overexpressing the E. coli β-galactosidase protein (LacZ clone C4 strain—ATCC® PRA-330™, ATCC, Manassas, VA, USA) were used to infect Vero cell monolayers (MOI: 10:1) in triplicate. After 2 h incubation at 37 °C, the culture media were removed and non-internalized parasites were eliminated by washing each well with at least 10 vol of sterile PBS 1X, after which fresh MEM-5% FBS was added. After 16–18 h, the culture medium was replaced with culture medium bearing the compounds to be tested at the desired concentration. Test compounds were prepared in DMSO, ensuring a final DMSO concentration of 1%. Cells treated with 1% DMSO were used as vehicle controls. To determine the IC50, each drug was evaluated in at least six different concentrations (usually 0.78, 1.56, 3.13, 6.25, 12.5, and 50.0 μM). The plate was further incubated for another 72 h at 37 °C, after which the culture media were removed and cells and intracellular amastigotes were lysed in 100 μL lysis buffer (25 mM Tris pH 8, 2 mM EDTA, 2 mM DTT, 1% Triton X-100, 10% glycerol in ultrapure MQ water) for 10 min at 37 °C. Then, 100 μL 2X reaction buffer (200 mM sodium phosphate, pH 8, 2 mM MgCl2, 100 mM 2-mercaptoethanol, and 1.33 mg.mL^−1 o-nitrophenyl-β-galactoside (ONPG)) was added, and the reaction was allowed to proceed until a yellow color developed (1–2 h at 37 °C). The absorbance at 420 nm was measured in a Synergy HTX multi-mode microplate reader (Biotek Instruments, Winooski, VT, USA) and normalized to the value obtained for the infection in the absence of inhibitors. IC50 for BZN was also evaluated following this method (concentrations evaluated: 0.10, 0.20, 0.39, 0.78, 1.56, 3.13, 6.25, 12.5, and 50.0 μM). Uninfected cells were included as blanks. Each compound was tested in at least two independent experiments.

[3] = system: trypomastigotes of the K98 strain (TcI); experiment: Trypanocidal effect on K98 strain trypomastigotes (motile parasite count); format: cell-based, Trypanosoma cruzi; conditions: 24 h of incubation
Protocol: (§1) For the evaluation of the trypanocidal effect of selected drugs on trypomastigotes, assays were performed using culture-derived trypomastigotes of the T. cruzi Y and K98 strains. Parasites were incubated in 96-well plates at a density ranging from 5 × 10^5 to 1 × 10^6 trypomastigotes per well, in a final volume of 100 μL of MEM supplemented with 5% serum. Test compounds were previously dissolved in dimethyl sulfoxide (DMSO) and added to the wells so that the final DMSO concentration was 1%. Wells containing 1% DMSO were used as vehicle controls, and 10 μM BZN served as a positive control. In the case of the Y strain, after 24 h of incubation at 37 °C, 10 μL of resazurin solution was added to reach a final concentration of 0.01 mg/mL. Plates were incubated for approximately 4 h at 37 °C to allow fluorescence development, and readings were performed in a microplate reader with excitation and emission wavelengths of 530 nm and 590 nm, respectively. To calculate EC50 in trypomastigotes, six points were used in a concentration range of 5 to 100 μM. At least three independent assays were performed. In the case of the K98 strain, after 24 h of incubation, motile parasites were counted in a hemocytometer chamber under a light microscope. Controls consisted of RPMI-1640 supplemented with 5% FBS as well as RPMI-1640 with 0.1% DMSO. At least three independent assays were performed.

[4] = system: culture-derived trypomastigotes of the T. cruzi Y strain; experiment: Trypanocidal effect on Y strain trypomastigotes (resazurin viability); format: cell-based, Trypanosoma cruzi; conditions: for Activity on Y Trypomastigotes: tested at 10 µM and 50 µM, 24 h
Protocol: as §1

[5] = parameters: method as in PMID 37061109; conditions: phase III clinical trial, non-alcoholic steatohepatitis; cited from earlier work
[6] = * not reliable because of the simultaneous toxic effect against Vero cells
[7] = intracellular amastigotes infecting Vero cells, 72 h

SMILES	cytotoxic effects on Vero cells (Vero cells)	Activity on Y Trypomastigotes [4]	CC50 Vero Cells (Vero cells)	EC50 [2, 7] [µM]	activity on intracellular amastigotes [2]	other results
CC1(C)CCC(c2ccc(Cl)cc2)=C(CN2CCN(c3ccc(C(=O)NS(=O)(=O)c4ccc(N[C@H](CCN5CCOCC5)CSc5ccccc5)c(S(=O)(=O)C(F)(F)F)c4)cc3)CC2)C1 [Navitoclax]	cytotoxic effects	–	–	–	–	CC50 [1]: 6.03 µM; EC50 [2, 6]: 2.14 µM
CC#C[C@]1(O)CC[C@H]2[C@@H]3CCC4=CC(=O)CCC4=C3[C@@H](c3ccc(N(C)C)cc3)C[C@@]21C [Mifepristone]	–	Active	–	–	–	EC50 ([3]; Trypanosoma cruzi): 17.9 µM; reduction in parasite viability ([4]; 50 µM, after 24 h of incubation, Y strain): 69.5%
CC(F)(F)c1cc(F)ccc1-c1sc2cc(O)ccc2c1Oc1ccc(/C=C/C(=O)O)cc1 [LSZ-102]	did not present cytotoxic activity	–	Not toxic	19.4	active	–
CCCCOCCOc1ccc(-c2ccc3c(c2)/C=C(/C(=O)Nc2ccc([S@@+]([O-])Cc4cncn4CCC)cc2)CCCN3CC(C)C)cc1 [Cenicriviroc]	did not present cytotoxic activity	–	Not toxic	4.76	active	primary efficacy endpoints for fibrosis [5]: did not meet its primary efficacy endpoints; selectivity index ([2]; intracellular amastigotes versus Vero cells): greater than 10
Cc1ccc(-n2nc(C(C)(C)C)cc2NC(=O)Nc2ccc(OCCN3CCOCC3)c3ccccc23)cc1 [Doramapimod]	did not present cytotoxic activity	–	Not toxic	11	active	–
COCCNCc1ccc(-c2cc3nccc(Oc4ccc(NC(=S)NC(=O)Cc5ccc(F)cc5)cc4F)c3s2)nc1 [Glesatinib]	cytotoxic effects	–	–	–	–	CC50 [1]: ~25 µM; EC50 [2, 6]: 6.49 µM
C=CC[C@]1(O)CC[C@H]2[C@@H]3CCC4=CC(=O)CCC4=C3C=C[C@@]21C [Altrenogest]	–	did not exhibit detectable activity; also recorded: Not active	–	–	–	EC50 on K98 Trypomastigotes [3]: Not active
C[C@]12CCC3=C4CCC(=O)C=C4CC[C@H]3[C@@H]1CC[C@@]2(O)CC#N [Dienogest]	–	did not exhibit detectable activity; also recorded: Not active	–	–	–	EC50 on K98 Trypomastigotes [3]: Not active

From publication PMC12736270, “Application of Data-Centric Supervised Machine Learning to Predict Phenotypic Activity Against Clinically Relevant Stages of Trypanosoma cruzi” (Pharmaceutics, 2025)
